# In PubChem BioAssay AID1645865 (Buhrlage Lab, Dana-Farber Cancer Institute and Novartis …, 2021):
# The source made the active and inactive calls.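 The calls were made as follows: active = maximal inhibition of the USP30 enzyme reaching 30% or more across the dose series; inactive = the rest.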
# Target: Ubiquitin carboxyl-terminal hydrolase 30 (Homo sapiens) (UniProt Q70CQ3)
# Experiment: ubiquitin-specific protease 30 DUB inhibitors, concentration-effect, biochemical, validation of primary actives (AID 1645865)
# Conditions: purified USP30, Ub-rhodamine cleavage, fluorescence, 2 h
# Chain of Ubiquitin carboxyl-terminal hydrolase 30 (Homo sapiens) (Q70CQ3 whole entry, looked up): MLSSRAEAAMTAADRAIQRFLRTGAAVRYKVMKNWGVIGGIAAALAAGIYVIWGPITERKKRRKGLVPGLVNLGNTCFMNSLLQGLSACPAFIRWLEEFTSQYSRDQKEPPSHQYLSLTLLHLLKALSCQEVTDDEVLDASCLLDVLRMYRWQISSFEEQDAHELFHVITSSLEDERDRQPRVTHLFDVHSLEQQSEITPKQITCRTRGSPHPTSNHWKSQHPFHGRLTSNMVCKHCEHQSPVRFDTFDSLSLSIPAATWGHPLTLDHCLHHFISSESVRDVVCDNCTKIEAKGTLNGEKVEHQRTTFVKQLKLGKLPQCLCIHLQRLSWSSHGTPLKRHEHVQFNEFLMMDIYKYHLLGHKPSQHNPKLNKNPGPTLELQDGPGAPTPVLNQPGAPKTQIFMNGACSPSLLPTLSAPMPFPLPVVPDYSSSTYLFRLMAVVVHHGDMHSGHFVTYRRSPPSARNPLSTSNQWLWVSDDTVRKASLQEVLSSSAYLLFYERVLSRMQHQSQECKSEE
row,IC50,SMILES
1,> 50 µM (inactive),COc1ccc(-c2nonc2NC(=O)C(c2ccccc2)c2ccccc2)cc1OC
2,8.5 µM,Cc1cc(C)c2cc(C(=O)NC3CCN(Cc4ccccc4)CC3)[nH]c2c1
3,> 50 µM (inactive),COc1cccc(-c2nc3cnccn3c2NCc2ccc3c(c2)OCO3)c1
4,> 50 µM (inactive),O=C(Cc1cccs1)Nc1cc(F)c2nc(N3CCOCC3)ccc2c1
5,48.7 µM,CC(C)(C)c1ccc(Cn2nnc3c(=O)[nH]c(C4CCN(S(=O)(=O)c5ccc(S(=O)(=O)NC6CC6)cc5)CC4)nc32)cc1
6,> 50 µM (inactive),Cc1ccc(NC(=O)C2CCN(c3cncnc3N3CCCC3)CC2)cc1
7,27.6 µM,Cc1ccc(Cn2cc(-c3noc(-c4ccncc4)n3)nn2)cc1
8,> 50 µM (inactive),O=c1cc(CNc2ccc(Br)cc2)nc2nc(-c3ccccc3)[nH]n12
9,17.5 µM,O=C(Nc1ncc2c(n1)-c1ccccc1CC2)C1CC1
10,22.9 µM,CC(C)c1ccc(C(C(=O)NC2CCCCC2)N(C(=O)c2cnccn2)c2cccc(F)c2)cc1 (centres undefined)
11,> 50 µM (inactive),CCOC(=O)c1c(C)oc2nc(CSc3ccccc3)[nH]c(=O)c12
12,21.3 µM,Cc1ccc(C2c3c(-c4ccccc4O)n[nH]c3C(=O)N2Cc2ccco2)cc1 (centres undefined)
13,> 50 µM (inactive),COc1ccc(NC(=O)C2CCN(c3cncnc3N(C)C)CC2)cc1OC
14,> 50 µM (inactive),COc1cc(NC(=O)c2cc(CN3CCOCC3)on2)cc(OC)c1
15,0.152 µM,COc1cccc(C(=O)Oc2ccc3c(=O)c(-c4ccc(OC)c(OC)c4)coc3c2)c1
16,29.3 µM,Cc1cc(C(=O)N2CC(C(=O)Nc3cc(C(F)(F)F)ccc3Cl)C2)no1
17,2.13 µM,COc1cc(-c2nc(C(N)=O)c3[nH]c(=O)n(-c4ccc(C)cc4)c3n2)cc(OC)c1OC
18,> 50 µM (inactive),CC1(C)CC2CC(C)(CN2Cc2c(O)ccc3ccccc23)C1 (centres undefined)
19,28.1 µM,C=Cc1ccc(Cn2cc(S(=O)(=O)N3CCOCC3)ccc2=O)cc1
20,> 50 µM (inactive),Cc1nc2ccccn2c1C1(O)C(=O)Nc2c(Cl)cc(Cl)cc21 (centres undefined)
21,2.57 µM,Cc1c(-c2ccc(C#N)cc2)oc2ccc(Br)cc2c1=O
22,> 50 µM (inactive),Cc1ncncc1C(=O)N1CCCC(C)(c2ncc(Cc3cccc(F)c3)o2)C1 (centres undefined)

row,IC50,SMILES
1,2.58 µM,CCn1cc2c(n1)c(=O)n(Cc1ccccc1)c(=O)n2CC(=O)Nc1ccc(OC)cc1
2,23.1 µM,CCn1cc(-c2nc(-c3ccccn3)no2)c(=O)c2cc(F)ccc21
3,> 50 µM (inactive),Cc1cc(C)cc(-n2cnc3cc(C(=O)NCCC4=CCCCC4)ccc32)c1
4,33.1 µM,COc1ccc(CN2CCCC23CCCN(C(=O)CCc2cccnc2)C3)cc1F (centres undefined)
5,> 50 µM (inactive),COc1cc(O)c2c(O)c3c(cc2c1)CC(C)OC3=O (centres undefined)
6,> 50 µM (inactive),O=c1ccc(-c2noc(Cc3cccc(Cl)c3)n2)c[nH]1
7,16.3 µM,O=C(COC(=O)c1cc(Cl)ccc1O)Nc1ccc2c(c1)OCCO2
8,0.488 µM,Cc1c(-c2nsc(NC(=O)c3ccc(Cl)cc3)n2)nnn1-c1ccccc1F
9,23.1 µM,O=C(COc1cccc2ccc(N3CCC(Cc4ccccc4)CC3)nc12)NCc1ccc(F)cc1
10,> 50 µM (inactive),CC(C(=O)NCc1ccc(F)cc1)n1cccc1C(=O)c1ccccc1 (centres undefined)
11,> 50 µM (inactive),CC(C)N1CC2CN(C(=O)c3ccccc3)CCN2Cc2ccccc21 (centres undefined)
12,> 50 µM (inactive),COc1ccc(OC)c(-c2cn3ccn(-c4ccc5c(c4)CCC5)c(=O)c3n2)c1
13,> 50 µM (inactive),CCOC(=O)c1sc2nc(CC(=O)OC)nc(NCc3ccco3)c2c1C
14,> 50 µM (inactive),N#Cc1ccc(Cn2nnc(-c3cccc(Cl)c3)n2)cc1
15,> 50 µM (inactive),Cc1c(C)n(-c2ccccc2)c2ncn(CC(=O)N(C)Cc3ccccc3)c(=O)c12
16,> 50 µM (inactive),FC(F)(F)c1ccccc1CCN1CCc2nc3ncc(Cl)cc3cc2C1
17,> 50 µM (inactive),Cc1cc(NC(=O)COc2ccc3oc4ccccc4c3c2)no1
18,35.1 µM,Cc1ccc2c(c1)[C@]1(C(=O)N2)[C@@H](C(=O)c2ccccc2)[C@]2(C(=O)Nc3ccccc32)[C@@H]2CCCN21
19,30.4 µM,Cc1ccc(C)c(Cn2nnc3c(=O)[nH]c(C4CCN(S(=O)(=O)c5ccc(S(=O)(=O)NC6CC6)cc5)CC4)nc32)c1
20,> 50 µM (inactive),O=c1c(OC2O[C@H](CO)[C@H](O)[C@H](O)[C@H]2O)c(-c2ccc(O)cc2)oc2cc(O)cc(O)c12 (some centres undefined)
21,26.9 µM,Cc1ccc(C(=O)NCc2ccc(C(=O)Nc3cccc(C)c3)o2)cc1
22,21.2 µM,CC(=O)Nc1ccc(-n2cnc(C(=O)NCc3ccc(C)cc3)c2)nc1

row,IC50,SMILES
1,> 50 µM (inactive),CCN(CC(=O)Nc1cc(C)on1)c1cccc2ccccc12
2,26.8 µM,Cc1nnc(C(=O)Nc2ccc(C(=O)NCc3ccccc3C)cc2)s1
3,> 50 µM (inactive),O=C(Nc1ccccc1)c1nc2c(s1)CCN(C(=O)c1ccccc1)CC2
4,20.5 µM,COc1cc(C#N)c(NC(=NCc2ccc(F)cc2)SC)cc1OC
5,12.3 µM,O=C(Nc1cccc(Cl)c1)c1ncn2c1CNS(=O)(=O)c1ccccc1-2
6,27 µM,Fc1cccc(-n2cc(-c3noc(-c4ccccn4)n3)nn2)c1
7,4.38 µM,O=C(CC1C(=O)Nc2nc(-c3ccccc3)nn21)Nc1cccc2ccccc12 (centres undefined)
8,> 50 µM (inactive),CC(=O)c1ccc(NC(=O)c2nc3ccccc3nc2N2CCOCC2)cc1
9,8.81 µM,Cc1ccc2c(c1)c(=O)c(C(=O)c1ccccc1)cn2CC(=O)Nc1ccccc1
10,> 50 µM (inactive),NS(=O)(=O)c1ccc(Cl)c(C(=O)OCc2csc(Nc3ccccc3)n2)c1
11,> 50 µM (inactive),Fc1ccc(Cn2ccc(-c3cnc(-c4ccccc4)s3)n2)cc1
12,27.4 µM,COc1c(C)c(C(O)C(C)O)c2[nH]c3ccc(CC=C(C)C)cc3c2c1O (centres undefined)
13,12.3 µM,CCCc1cc(=O)oc2cc(OCC(=O)NCc3ccc(OC)cc3)ccc12
14,> 50 µM (inactive),O=C(Nc1nnc2n1CCCS2)c1cccc(Cl)c1
15,> 50 µM (inactive),C[C@H](NC(=O)Cc1ccccc1F)c1nc2cc(-c3ccccc3F)ncn2n1
16,26.6 µM,CCOC(=O)c1nc(Nc2ccc(OC)c(Cl)c2)c2ccccc2n1
17,> 50 µM (inactive),CC1CCc2c(sc3ncnc(OCc4cccc([N+](=O)[O-])c4)c23)C1 (centres undefined)
18,> 50 µM (inactive),CN(C)S(=O)(=O)c1ccc(C(=O)Nc2c(C#N)oc3ccccc23)cc1
19,> 50 µM (inactive),CCN(C(=O)c1cc2c(s1)-c1ccccc1OC2)c1ccccc1F
20,> 50 µM (inactive),CCc1nc(N2CCCC2=O)sc1C(=O)Nc1cccc(C(C)=O)c1
21,20.6 µM,O=C(Cn1cccc1-c1nc(-c2ccccc2)cs1)N1CCOCC1

row,SMILES,IC50
1,CN1C(=O)[C@@]23C[C@]4([C@@]56C[C@]78SS[C@](CO)(C(=O)N7[C@@H]5Nc5ccccc56)N(C)C8=O)c5ccccc5N[C@@H]4N2C(=O)[C@]1(CO)SS3,0.266 µM
2,CC[C@@]1(O)C[C@H](OC2CC(N(C)C)C(OC3CC(O)C(OC4CCC(=O)C(C)O4)C(C)O3)C(C)O2)c2c(cc3c(c2O)C(=O)c2c(O)ccc(O)c2C3=O)[C@H]1C(=O)OC (some centres undefined),> 50 µM (inactive)
3,CC1(C)CC(n2[nH]c(=O)c3c2NC(=O)CSC3c2ccc(OCc3ccccc3)cc2)CCO1 (centres undefined),12 µM
4,COc1c(Cl)ccc2c(=O)c3c(O)c4c5c(c3oc12)OCO[C@H]5[C@@H](OC)c1cc2c(c(O)c1-4)C(=O)N(C)[C@H](OC)[C@@H]2O,4.94 µM
